# Source: PMC9091336, “Functional Characterization of Odorant Binding Protein PyasOBP2 From the Jujube Bud Weevil, Pachyrhinus yasumatsui (Coleoptera: Curculionidae)” (Frontiers in Physiology, 2022)
# How the values were obtained:
# PyasOBP2 [1] = assay: Fluorescence competitive binding assay with 1-NPN as probe; set-up: species or system Pachyrhinus yasumatsui; settings: for IC50 / Ki: PyasOBP2 2 μM, 1-NPN 2 μM; for IC50: ligand 0 to 20 μM, three replicates; for Ki: dissociation constant calculated from IC50 by Ki=IC50/(1+[1-NPN]/K1-NPN); for binding to PyasOBP2 (in words): fluorescence competitive binding, ligand up to 20 μM
# Method: (§1) Fluorescence competitive binding assays were carried out on an F-2700 fluorescence spectrophotometer (Hitachi, Tokyo, Japan) to determine the binding affinity of PyasOBP2. 1-N-phenyl-naphthylamine (1-NPN) was used as a fluorescent probe ([Pelosi et al., 2006]) with excitation at 337 nm, and the emission spectra were measured from 370 to 550 nm. Based on gas chromatography-mass spectrometry (GC-MS) and previous studies ([Yan et al., 2017]; [Yan et al., 2020]), 38 volatiles derived from Z. jujuba were selected as putative ligands for fluorescence competitive binding assays (Table 2). 1-NPN and all ligands used in binding assays were diluted in methanol to 1 mM stock solutions. To measure the binding affinity of PyasOBP2 with 1-NPN, PyasOBP2 solution (with a final concentration of 2 μM) was titrated with 1-NPN to final concentrations ranging from 2 to 20 μM. In ligand-binding assays, each ligand with a concentration ranging from 0 to 20 μM was added into a mixture of PyasOBP2 (2 μM) and 1-NPN (2 μM), and maximal fluorescence intensities were plotted against ligand concentrations based on three replicates.
# The dissociation constant K1-NPN (for PyasOBP2 binding with 1-NPN) was calculated with Scatchard plotting of binding data in the GraphPad Prism 8.0 Software ([Sideris et al., 1992]). The dissociation constant (Ki) of each ligand was calculated with Eq. 3, as described by [Cui et al. (2018)]. The ligand binding affinity to PyasOBP2 was considered as very strong (Ki≤5 μM), strong (5 μM<Ki≤10 μM), moderate (10 μM<Ki≤20 μM) and weak (Ki>20 μM) in this study. Ki=IC50/(1+[1−NPN]/K1−NPN) (3)
# PyasOBP2 [2] = assay: Binding of fluorescent probe 1-NPN to PyasOBP2 (titration, Scatchard plot); set-up: species or system Pachyrhinus yasumatsui; settings: PyasOBP2 2 μM titrated with 1-NPN 2 to 20 μM, read-out: dissociation constant of PyasOBP2 with 1-NPN
# Method: as §1, with “To measure the binding affinity of PyasOBP2 with 1-NPN, PyasOBP2 solution (with a final concentration of 2 μM) was titrated with 1-NPN to final concentrations ranging from 2 to 20 μM.” left out
# The dissociation constant K1-NPN (for PyasOBP2 binding with 1-NPN) was calculated with Scatchard plotting of binding data in the GraphPad Prism 8.0 Software ([Sideris et al., 1992]). The dissociation constant (Ki) of each ligand was calculated with Eq. 3, as described by [Cui et al. (2018)]. […]
# [3] = system: adult P. yasumatsui antennae; set-up: method as in Yan et al., 2017; Yan et al., 2020; settings: ref Yan et al., 2017, 2020; cited from earlier work
# P. yasumatsui adults = system: P. yasumatsui adults; set-up: method as in Yan et al., 2017; Yan et al., 2020; settings: volatiles emitted from jujube shoots, ref Yan et al., 2017, 2020; cited from earlier work
Compound,IC50 (PyasOBP2 [1]),Ki (PyasOBP2 [1]),other results
"c1ccc(Nc2cccc3ccccc23)cc1 [1-NPN, 1-N-phenyl-naphthylamine]",,,Kd (PyasOBP2 [2]): 5.66 µM
C=CC(O)CC (centres unmarked) [1-Penten-3-ol],> 20 µM,,
CC1=CCC2C(C1)C2(C)C (centres unmarked) [3-Carene],> 20 µM,> 20 µM,
N#Cc1ccccc1 [Benzonitrile],> 20 µM,,binding to PyasOBP2 (in words) (PyasOBP2 [1]): could not bind to PyasOBP2
OCc1ccccc1 [Benzyl alcohol],16.2 µM,12 µM,
CCCCOC(C)=O [Butyl acetate],> 20 µM,> 20 µM,
CCCCOC(=O)c1ccccc1C(=O)OCCCC [Dibutyl phthalate],10.5 µM,7.73 µM,
CCCCCCCCCCCC [Dodecane],> 20 µM,,binding to PyasOBP2 (in words) (PyasOBP2 [1]): could not bind to PyasOBP2
CCOC(=O)C(C)CC (centres unmarked) [Ethyl 2-methylbutyrate],> 20 µM,,
CCOC(=O)CC(C)C [Ethyl isovalerate],> 20 µM,,
CCCCC(=O)OCC [Ethyl valerate],> 20 µM,,
CC12CCC(CC1)C(C)(C)O2 [Eucalyptol],15.1 µM,12.8 µM,
C=CCc1ccc(O)c(OC)c1 [Eugenol],> 20 µM,,binding to PyasOBP2 (in words) (PyasOBP2 [1]): could not bind to PyasOBP2
CC(C)=CCCC(C)=CC#N [Geranyl nitrile],> 20 µM,,binding to PyasOBP2 (in words) (PyasOBP2 [1]): could not bind to PyasOBP2
CCCCCCC=O [Heptaldehyde],15.4 µM,11.4 µM,
CCCCCCCC/C=C\CCCCCCCC(=O)OC [Methyl oleate],> 20 µM,,binding to PyasOBP2 (in words) (PyasOBP2 [1]): could not bind
CCCCCCCCCCCCCCCC(=O)OC [Methyl palmitate],> 20 µM,> 20 µM,binding to PyasOBP2 (in words) (PyasOBP2 [1]): could not bind; EAG response [3]: strong EAG responses; attraction of adults (P. yasumatsui adults): significantly attracted
CCCCCCCCC=O [Nonanal],15.6 µM,13.2 µM,Ki (PyasOBP2 [1]; listed as nonanal): < 20 µM; EAG response [3]: strong EAG responses; attraction of adults (P. yasumatsui adults): significantly attracted
CC(C)=CCC/C(C)=C/CC/C(C)=C/CC/C=C(\C)CC/C=C(\C)CCC=C(C)C [Squalene],> 20 µM,,binding to PyasOBP2 (in words) (PyasOBP2 [1]): could not bind
CC/C=C\CCOC(=O)CC(C)C [cis-3-Hexenyl 3-methylbutanoate],> 20 µM,,
CC/C=C\CCOC(C)=O [cis-3-Hexenyl acetate],> 20 µM,,
CCC/C=C/C=O [trans-2-Hexen-1-al],15.8 µM,13.4 µM,
C=C/C(C)=C/C/C=C(\C)CCC=C(C)C [α-farnesene],,,attraction of adults (P. yasumatsui adults): significantly attracted
C=C1CC/C=C(\C)CC[C@@H]2[C@@H]1CC2(C)C [β-Caryophyllene],> 20 µM,,

# More lines, in order of falling IC50 (PyasOBP2 [1]), values ahead:
IC50 (PyasOBP2 [1]),Ki (PyasOBP2 [1]),Compound,other results
13 µM,11 µM,CC(C)C=O [Isobutyraldehyde],
11.9 µM,10.1 µM,CC/C=C\CCOC(=O)C(C)CC (stereo not drawn) [2-Methylbutyric Acid cis-3-Hexen-1-yl Ester],
11.8 µM,8.92 µM,C=CC(=C)CCC=C(C)C [Myrcene],
11.6 µM,9.88 µM,C=CC(C)(O)CCC=C(C)C (centres unmarked) [Linalool],Ki (PyasOBP2 [1]; listed as linalool): < 10 µM
10.9 µM,8.03 µM,CCCCCC=O [Caproaldehyde],
10.8 µM,9.18 µM,CC1=CCC2CC1C2(C)C (stereo not drawn) [α-Pinene],
10.7 µM,9.12 µM,CC1=CC[C@H](C(C)C)C=C1 [α-Phellandrene],
10.5 µM,8.92 µM,C=CC(C)=CCC=C(C)C [Ocimene],Ki (PyasOBP2 [1]; listed as ocimene): < 10 µM; EAG response [3]: strong EAG responses; attraction of adults (P. yasumatsui adults): significantly attracted
8.93 µM,6.6 µM,CCC/C=C/CO [trans-2-Hexen-1-ol],Ki (PyasOBP2 [1]; listed as trans-2-hexen-1-ol): < 10 µM
8.33 µM,7.08 µM,C=C1C2CCC(C2)C1(C)C (centres unmarked) [Camphene],
8.06 µM,6.85 µM,CC/C=C\CCO [cis-3-Hexen-1-ol],Ki (PyasOBP2 [1]; listed as cis-3-hexen-1-ol): < 10 µM
7.81 µM,6.64 µM,CCCCCCCC=O [Octanal],
7.54 µM,6.41 µM,C=CC(C)(O)CCC=C(C)CCC=C(C)C (mixture of isomers) [Nerolidol],Ki (PyasOBP2 [1]; listed as nerolidol): < 10 µM
7.05 µM,5.99 µM,C=C(C)[C@H]1CC=C(C)CC1 [Dipentene],Ki (PyasOBP2 [1]; listed as dipentene): < 5 µM
5.42 µM,4.61 µM,CC(C)=Cc1ccccc1 [2-Methyl-1-phenylpropene],
3.55 µM,3.02 µM,CCCC(=O)OCC [Ethyl butyrate],Ki (PyasOBP2 [1]; listed as ethyl butyrate): < 5 µM
